# Measured values as given in patent publication US9764037B2, “Conjugate compounds” (Victoria Link Limited, priority 2012, dated 2017).
# Key:
# splenic dendritic cells = experiment: Impact of prior vaccination on response to free α-GalCer two weeks later, CD86 on splenic dendritic cells (FIGS. 6, 7); format: in vivo, mice; details: 200 ng α-GalCer intravenously two weeks after vaccination, FIGS. 6 and 7
# Protocol: Flow cytometry is used to assess CD86 upregulation on splenic dendritic cells after intravenous injection of 200 ng α-GalCer, which is used as a readout of NKT cell activity. Mean fluorescence index (MFI)±SEM are presented. […] Each dot represents a different animal; mean per treatment group (n=3)±SEM are presented. ***p<0.001, **p<0.01, * p<0.05.
# [1] = HPLC-ESI-MSMS quantification of α-GalCer in formulated test samples; format: physicochemical; details: level of α-GalCer in freshly reconstituted formulated samples
# Protocol: Compounds of the invention are formulated analogously to reported methods for α-GalCer. Briefly, solubilisation of α-GalCer is based on excipient proportions described by Giaccone et al. (Giaccone, Punt et al. 2002). Thus, 100 μL of a 10 mg/mL solution of α-GalCer or a compound of the invention in 9:1 THF/MeOH is added to 1.78 mL of an aqueous solution of Tween 20 (15.9 mg), sucrose (177 mg) and L-histidine (23.8 mg). This homogeneous mixture is freeze dried and the resulting foam is stored under Ar at −18° C. This material is reconstituted with 1.0 mL of PBS or water prior to serial dilutions in PBS to achieve final injectable solutions of α-GalCer or compounds of the invention.
# Quantification of the amount of α-GalCer in various test samples of compounds of the invention is made by HPLC-ESI-MSMS analysis using a Waters 2795 HPLC and a Waters Q-TOF Premier™ Tandem Mass Spectrometer. The chromatography used a Phenomenex Kinetex C18 […] 3.0×50 mm column eluting with isocratic methanol containing 10 mM ammonium formate+0.5% formic acid at a flow rate of 0.2 mL/min. α-GalCer is monitored by selective […] monitoring of 898.7 to 696.7 Da. The estimate of amount of α-GalCer is made by comparison of ion count integrals to a standard curve run on the same day or by comparison to test samples spiked with a known amount of α-GalCer. The level of α-GalCer is determined on freshly reconstituted formulated samples unless otherwise stated
# T-cell = details: Parekh, Wilson et al. 2005; cited from earlier work
# [2] = Giaccone, Punt et al. 2002; cited from earlier work
# [3] = Ebensen, Link et al. 2007; cited from earlier work
# CD11c+ dendritic cells = experiment: CD86 expression on splenic dendritic cells after intravenous injection (FIG. 1); format: in vivo, C57BL/6 mice; details: 0.571 nmol intravenously, spleens 20 h later
# Protocol: Groups of C57BL/6 mice (n=3) are injected intravenously with 0.571 nmol of the indicated compounds and then the spleens removed 20 h later for the analysis of CD86 expression on CD11c^+ dendritic cells by antibody labelling and flow cytometry. Mean fluorescence index (MFI)±SEM are presented.
# Antibody staining and flow cytometry is used to examine the expression of maturation markers on dendritic cells in the spleen following injection of compounds of the invention. Splenocyte preparations are prepared by gentle teasing of splenic tissue through gauze in Iscove's Modified Dulbecco's Medium with 2 mM glutamine, 1% penicillin-streptomycin, 5×10^-5 M 2-mercapto-ethanol and 5% fetal bovine serum (all Invitrogen, Auckland, New Zealand), followed by lysis of red blood cells with RBC lysis buffer (Puregene, Gentra Systems, Minneapolis, Minn., USA). Antibody staining is performed in PBS 2% fetal bovine serum and 0.01% sodium azide. The anti-FcgRII monoclonal antibody 2.4G2 is used at […] to inhibit non-specific staining. Monoclonal antibodies (all BD Biosciences Pharmingen, San Jose, Calif., USA) are used to examine expression of the maturation markers CD40, CD80 and CD86 on CD11c+ dendritic cells.
# [4] = test system: leukocyte infiltration into the lungs; experiment: Allergic airway inflammation in OVA-sensitized animals (FIG. 13); format: in vivo, mice; details: three days after challenge
# Protocol: Control animals receive intranasal PBS instead of challenge, and positive control groups receive challenge but no treatment (“OVA”). The prodrug vaccines and admixed α-GalCer and peptide are administered seven days before challenge […], while the in vitro activated OVA257-specific CTL are administered one day before challenge (day 23). The total numbers of cells in BAL fluid (left), and numbers of eosinophils (right), are evaluated three days after challenge by flow cytometry.
# [5] = test system: SIINFEKL-specific T cells; experiment: Analysis of peptide-specific T cell proliferation in vivo (FIGS. 2, 5, 8, 9); design: species or system mice
# Protocol: (SEQ ID NO:262) peptide in each case. To increase sensitivity of the assay, all mice are initially donated a cohort of 10,000 […] (SEQ ID NO:262)-specific T cells from a transgenic mouse encoding a T cell receptor for this antigen (OT-1 mice) by intravenous injection of the cells one day before the vaccines are administered. […] It is therefore possible to enumerate […] (SEQ ID NO:262)-specific T cells in blood by flow cytometry using antibodies for CD45.1 together with antibodies for the transgenic T cell receptor (Vα2). […] Control animals are injected with the diluent phosphate-buffered saline (PBS). […] Each dot represents a different animal; mean per treatment group±SEM are presented.
# Accumulation of antigen-specific T cells in the blood in response to vaccination is measured 7 days later, as described for FIG. 2.
# Pooled lymph node cell suspensions are prepared from animals of a cross between OT-I mice, which express a transgenic T cell receptor (TCR) specific for the ovalbumin epitope […] in the context of H-2K^b molecules, and B6.SJL-Ptprc^a Pepc^b/BoyJ mice, which are congenic with C57BL/6 mice for the CD45.1^+ marker. The samples are enriched for CD8^+ cells using antibody coated magnetic beads (Miltenyi), and then transferred into recipient mice (1×10^4 per mouse). Groups of recipient animals (n=5) are immunized with compounds of the invention one day later. Doses are chosen to provide equivalent molar values of […] peptide. Control animals receive phosphate-buffered saline. After seven days, blood samples are collected from the lateral tail vein and stained directly ex vivo with antibodies for TCR Vα2, CD45.1 and CD8 to detect the […]-specific CD8^+ T cells by flow cytometry.
Compound,DC activation (CD86 upregulation) on administration of free α-GalCer after earlier vaccination (splenic dendritic cells),α-GalCer/injection [1] [ng],T-cell anergy (T-cell),efficacy in human clinical trials [2],solubility [3],activation of DCs (expression of activation marker CD86 on splenic DCs) (CD11c+ dendritic cells),leukocyte infiltration into the lungs (total number of cells in BAL fluid) ([4]; vaccination of sensitized mice one week before challenge),infiltration of eosinophils (BAL fluid) ([4]; vaccination seven days before challenge),T cell expansion on repeated administration ([5]; FIG. 8),"T cell response on boosting after priming with SIINFEKL with α-GalCer (unconjugated) ([5]; boost day 14 or 35, read day 21 or 42, blood, FIG. 9)","dependence of the T cell response on langerin+ CD8α+ DCs ([5]; depletion by diphtheria toxin, FIG. 2)","population of SIINFEKL-specific T cells (Vα2+ CD45.1+) in blood ([5]; intravenous vaccination, compared with admixed α-GalCer and peptide, lang-EGFPDTR mice, FIG. 2)"
"CCCCCCCCCCCCCCCCCCCCCCCCCC(=O)OC(CCCCCCCCCCCCCC)C(O)C(COC1OC(CO)C(O)C(O)C1O)NC(=O)OCc1ccc(NC(=O)C(CCCNC(N)=O)NC(=O)C(NC(=O)OCc2ccccc2)C(C)C)cc1 [CN165, (2S,3S,4R)-1-O-α-D-Galactopyranosyl-4-O-hexacosanoyl-2-(N-Cbz-Val-Cit-4-aminobenzyloxycarbonylamino) octadecane-1,3,4-triol]",some DC activation,0.028,,,,,,,,,,
"CCCCCCCCCCCCCCCCCCCCCCCCCC(=O)OC(CCCCCCCCCCCCCC)C(O)C(COC1OC(CO)C(O)C(O)C1O)NC(=O)OCc1ccc(NC(=O)C(CCCCN)NC(=O)C(Cc2ccccc2)NC(=O)OCc2ccccc2)cc1 [CN166, (2S,3S,4R)-1-O-α-D-Galactopyranosyl-4-O-hexacosanoyl-2-(N-Cbz-Phe-Lys-4-aminobenzyloxycarbonylamino) octadecane-1,3,4-triol]",some DC activation,0.136,,,,,,,,,,
"CCCCCCCCCCCCCCCCCCCCCCCCCC(=O)N[C@@H](CO[C@H]1O[C@H](CO)[C@H](O)[C@H](O)[C@H]1O)[C@H](O)[C@H](O)CCCCCCCCCCCCCC [α-GalCer, α-Galactosylceramide]",no measurable activation of DCs,,promotion of T-cell anergy,lack of efficacy,poor solubility,,,,,,,
"(2S,3S,4R)-1-O-α-D-Galactopyranosyl-4-hexacosanoyl-2-((4-(2-(FFRKSIINFEKL)-2-oxoethoxy)imino)pentanoyloxy)methoxycarbonylamino) octadecane-1,3,4-triol [CN152]",some DC activation,0.05,,,,potently activates DCs,significantly suppress leukocyte infiltration into the lungs,superior to both CN178 and admixed groups,induces further T cell expansion,induces measurable T cell responses,dependent on langerin^+ CD8α^+ DCs,larger population of peptide-specific T cells
